From paper PMC12892976, “Alkylation-based optimization of antifungal FPPS inhibitors yields a potent, broad-spectrum lipophilic zoledronate derivative” (mBio, 2025)

Experiments:
Candida albicans [1] = assay: MIC/MFC broth microdilution (CLSI); format: cell-based; settings: Candida albicans SC5314
Description: (§1) Antifungal susceptibility was determined by broth microdilution according to the CLSI guidelines described in M27-Ed4 ([16]). […] MFC was determined by back-plating drug-treated cultures from MIC broths onto SDA plates. The MFC was defined as the lowest concentration from which no colonies could be cultured.

Candida albicans [2] = assay: checkerboard drug interaction (FICI, MICc);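 as to all read-outs here: antifungal plus FPPS inhibitor combinations on Candida albicans tested by a simplified diagonal checkerboard screen, with FICI calculated under the Loewe additivity model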; format: cell-based; settings: C. albicans; for INH FD (MIC-MICc fold decrease): fold decrease of inhibitor MIC
Description: (§2) Drug interactions between antifungals and FPPS inhibitors were investigated using a simplified checkerboard diagonal screening method ([45]). […] FICIs were determined according to the Loewe additivity model ([17]).

Trichophyton rubrum [3] = assay: checkerboard drug interaction (FICI, MICc);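 also: simplified diagonal checkerboard screen pairing azole antifungals with FPPS inhibitors, FICI calculated under the Loewe additivity model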; format: cell-based; settings: T. rubrum
Description: as §2

Cryptococcus neoformans = assay: checkerboard drug interaction (FICI, MICc);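 as to all read-outs here: antifungal plus FPPS inhibitor pairs tested against Cryptococcus neoformans by simplified diagonal checkerboard screening, FICI computed under the Loewe additivity model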; format: cell-based; settings: C. neoformans; for INH FD (MIC-MICc fold decrease): fold decrease of inhibitor MIC
Description: as §2

eight fungal species = assay: checkerboard interaction with azoles, summary across the eight species; format: cell-based; settings: geometric mean MIC in combination with azoles
Source text: Synergy between lipophilic FPPS inhibitors and azole antifungals was investigated by determining the fractional inhibitory concentration index (FICI) (Fig. 2; Table S1 Fig. S1) ([17]). […]. Derivatives PLA9 and 11, and PDA9, 11, and 12 antagonized azoles in C. albicans, C. neoformans, and C. deuterogattii, yet were largely synergistic in C. glabrata and S. cerevisiae. […].

Trichophyton rubrum [4] = assay: MIC/MFC broth microdilution (CLSI); settings: Trichophyton rubrum
Description: as §1

Aspergillus flavus [5] = assay: MIC/MFC broth microdilution (CLSI); settings: ATCC204304
Description: as §1

Aspergillus fumigatus = assay: MIC/MFC broth microdilution (CLSI); settings: ATCC204305
Description: as §1

Saccharomyces cerevisiae = assay: MIC/MFC broth microdilution (CLSI); format: cell-based; settings: Saccharomyces cerevisiae S288c
Description: as §1

[6] = system: Cryptococcus deuterogattii; assay: MIC/MFC broth microdilution (CLSI); settings: Cryptococcus deuterogattii;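 also: broth microdilution per CLSI M27-Ed4. MFC is the lowest concentration yielding no colonies when MIC broths are subcultured onto SDA plates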
Description: as §1

Aspergillus flavus [7] = assay: checkerboard drug interaction (FICI, MICc);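 also: simplified diagonal checkerboard screen pairing azole antifungals with FPPS inhibitors, FICI calculated under the Loewe additivity model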; format: cell-based; parameters: INH MICc (KET:INH) / INH MICc (FLC:INH): unit not given beside the values; settings: A. flavus
[8] = FLC:INH combination, MIC of the inhibitor in combination with FLC
[9] = FLC:INH combination, fold decrease of FLC MIC
[10] = ITR:INH combination, MIC of the inhibitor in combination with ITR
[11] = ITR:INH combination, fold decrease of ITR MIC
[12] = KET:INH combination, MIC of the inhibitor in combination with KET
[13] = KET:INH combination, fold decrease of KET MIC
[14] = Fractional Inhibitory Concentration Index, fluconazole + inhibitor
[15] = Fractional Inhibitory Concentration Index, itraconazole + inhibitor
[16] = Fractional Inhibitory Concentration Index, ketoconazole + inhibitor
[17] = MIC of the inhibitor in combination with fluconazole
[18] = MIC of the inhibitor in combination with itraconazole
[19] = MIC of the inhibitor in combination with ketoconazole
[20] = MIC-MICc fold decrease of fluconazole, negative = increase
[21] = MIC-MICc fold decrease of itraconazole, negative = increase
[22] = MIC-MICc fold decrease of ketoconazole, negative = increase
[23] = MIC-MICc fold decrease of the inhibitor, with fluconazole

CCCCCCCCCCCCN1CCC[C@H]1C(=O)N[C@H](CC(=O)O)C(=O)O [PDA12]
32: INH MICc (Candida albicans [2]; [12])
2.25: FICI (Cryptococcus neoformans; ITR:INH combination)
≥4: FICI (Candida albicans [2]; ITR:INH combination) | FICI (Candida albicans [2]; KET:INH combination) | FICI (FLC:INH) (Trichophyton rubrum [3]; [14]) | FICI (KET:INH) (Trichophyton rubrum [3]; [16]) | FICI (Cryptococcus neoformans; FLC:INH combination) | FICI (Cryptococcus neoformans; KET:INH combination)
128 µg/mL: MIC (Trichophyton rubrum [4])
128: INH MICc (Cryptococcus neoformans; [8]) | INH MICc (Cryptococcus neoformans; [12]) | INH MICc (ITR:INH) (Aspergillus flavus [7]; [18]) | INH MICc (KET:INH) (Aspergillus flavus [7]; [19])
64: INH MICc (Candida albicans [2]; [10]) | INH MICc (Cryptococcus neoformans; [10])
8: INH FD (MIC-MICc fold decrease) (Candida albicans [2]; KET:INH combination)
< -4: ITR FD (MIC-MICc fold decrease) (Candida albicans [2]; [11])
16: INH MICc (Candida albicans [2]; [8]) | INH FD (MIC-MICc fold decrease) (Candida albicans [2]; FLC:INH combination)
-4: KET FD (MIC-MICc fold decrease) (Candida albicans [2]; [13]) | FLC FD (MIC-MICc fold decrease) (Cryptococcus neoformans; [9]) | KET FD (MIC-MICc fold decrease) (Cryptococcus neoformans; [13])
256: INH MICc (FLC:INH) (Trichophyton rubrum [3]; [17]) | INH MICc (ITR:INH) (Trichophyton rubrum [3]; [18]) | INH MICc (KET:INH) (Trichophyton rubrum [3]; [19]) | INH MICc (FLC:INH) (Aspergillus flavus [7]; [17])
-2: FLC FD (MIC-MICc fold decrease) (Candida albicans [2]; [9]) | FLC FD (FLC:INH) (Trichophyton rubrum [3]; [20]) | KET FD (KET:INH) (Trichophyton rubrum [3]; [22]) | INH FD (FLC:INH) (Trichophyton rubrum [3]; [23]) | INH FD (ITR:INH) (Trichophyton rubrum [3]; MIC-MICc fold decrease of the inhibitor, with itraconazole) | INH FD (KET:INH) (Trichophyton rubrum [3]; MIC-MICc fold decrease of the inhibitor, with ketoconazole) | ITR FD (MIC-MICc fold decrease) (Cryptococcus neoformans; [11])
> 128 µg/mL: MFC (Candida albicans [1]) | MIC (Candida albicans [1]) | MFC (Trichophyton rubrum [4]) | MFC (Aspergillus flavus [5]) | MIC (Aspergillus flavus [5]) | MFC (Aspergillus fumigatus) | MIC (Aspergillus fumigatus) | MFC (Saccharomyces cerevisiae) | MIC (Saccharomyces cerevisiae) | MFC [6] | MIC [6]
1: ITR FD (ITR:INH) (Trichophyton rubrum [3]; [21]) | FICI (ITR:INH) (Aspergillus flavus [7]; [15]) | FICI (KET:INH) (Aspergillus flavus [7]; [16]) | FLC FD (FLC:INH) (Aspergillus flavus [7]; [20]) | INH FD (FLC:INH) (Aspergillus flavus [7]; [23])
2: INH FD (MIC-MICc fold decrease) (Cryptococcus neoformans; FLC:INH combination) | INH FD (MIC-MICc fold decrease) (Cryptococcus neoformans; KET:INH combination) | FICI (FLC:INH) (Aspergillus flavus [7]; [14]) | ITR FD (ITR:INH) (Aspergillus flavus [7]; [21]) | KET FD (KET:INH) (Aspergillus flavus [7]; [22])
4: INH FD (MIC-MICc fold decrease) (Candida albicans [2]; ITR:INH combination) | INH FD (MIC-MICc fold decrease) (Cryptococcus neoformans; ITR:INH combination)
52.3: GM fungal MICc (eight fungal species)
3: FICI (ITR:INH) (Trichophyton rubrum [3]; [15])
2.06: FICI (Candida albicans [2]; FLC:INH combination)
